Several values for one entry are separate records, joined by “and”; a condition that tells them apart may be missing. Equal entries are not always repeated.
Tested on: OVCAR-5 complex spheroids, viability
Experiment: Anticancer human tumor OVCAR-5 cell line growth inhibition;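 also: spheroids exposed to agents for seven days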
Conditions: for viability, T/C: stronger effect = lower value; for IC50: curve of compound; active = viability on the fitted dose curve at most 10% of control; inactive = the rest
Description: Multicellular complex tumor spheroid response to LSD1 Inhibitor Iadademstat in combination with a variety of drugs and investigational agents in selected tumor cell lines
The current study was undertaken to assess response to LSD1 inhibitors in combination with standard-of-care drugs and investigational agents in solid tumor complex spheroid models as well as in the K-562 leukemia. Complex spheroids include a stromal component modeled by human endothelial cells (HUVEC) and fibroblasts modeled by human mesenchymal stem cells (MSCs). The concentration ranges selected for each drug and investigational agent were based upon clinically achievable concentrations if the clinical Cmax of the agent was known.
Compounds. The drugs and investigational agents used in this study are listed on Table 1. All of the agents used, including staurosporine (NSC755774) and gemcitabine (NSC613327), were obtained from the Developmental Therapeutics Program, NCI. FDA-approved anticancer drugs are available from the NCI at http://dtp.nci.nih.gov/branches/dscb/oncology_drugset_explanation.html. Drugs and investigational agents were >95% pure by proton nuclear magnetic resonance (NMR) and liquid chromatography/mass spectrometry (LC/MS). Stock solutions were prepared at 400x in DMSO, stored at -70 degrees C, and diluted in fresh medium prior to their use. The final concentration of DMSO in cell culture wells never exceeded 0.25% (v/v). The FDA-approved anticancer drug set is available from the Developmental Therapeutics Program at https://dtp.cancer.gov/organization/dscb/obtaining/available_plates.htm. All drugs and investigational agents were tested over a range starting from a high concentration at or near the clinical Cmax and decreasing in half-log increments. If the clinical Cmax for an agent had not been determined, the highest concentration tested was 10 microM.
Cell Lines. The patient-derived cancer cell (PDC) lines: 292921-168-R-J2-PDC, K24384-001-R-PDC, and 521955-158-R2-J5-PDC pancreatic carcinomas, 556581-035-R-J1 ovarian carcinoma, 324938-238-R-J1-PDC, 855422-203-R-J1-PDC and 883617-216-R-J1-PDC urothelial bladder carcinomas, 743489-274-T-PDC renal cell carcinoma, 138582-R-J1 Merkel cell tumor, K60290-347-R-J1 and K57222-313-R-J1-PDC glioblastomas, 653999-131-R-J2-PDC, LG0703-F948-PDC, and 349418-098-R-PDC non-small cell lung carcinomas, 885512-296-R-J2-PDC, 171881-019-R-J1-PDC breast carcinomas and 186277-243-T-J2-PDC and 233499-124-R-J2-PDC colon carcinomas were obtained from the NCI Patient-Derived Models Repository (PDMR, https://pdmr.cancer.gov). The established cell lines NCI/ADR-RES (RRID:CVCL_14520 and OVCAR-5 (RRID:CVCL_1628) ovarian carcinomas, 786-O (RRID:CVCL_1051) and A498 […] renal cell carcinoma, NCI-H211 (ATCC, cat. CRL-5824; RRID:CVCL_1529), NCI-H196 (ATCC, cat. CRL-5823, RRID:CVCL_1509), SW 1271 (ATCC, cat. CRL-2177, RRID:CVCL_1716) and NCI-H1876 (ATCC, cat. CRL-5902, RRID:CVCL_1503) small cell lung carcinomas, MDA-MB-231 (RRID:CVCL_0062) and MDA-MB-468 (RRID:CVCL_0419)breast carcinomas (10-12). Pooled donor human umbilical vein endothelial cells (HUVEC, Lonza, cat. CC-2519) and human mesenchymal stem cells (hMSC, Lonza, cat. PT-2501) were purchased from Lonza (Walkersville, MD).
Cell Culture. All cells were maintained in an incubator at 37 degrees C and 5% CO2 with 95% humidity. The PDC lines were cultured according to standard operating procedures established by the NCI PDMR (https://pdmr.cancer.gov). Briefly all PDCs were thawed and cultured in Matrigel-coated flasks prepared with a working solution of 1X Ham's F-12 nutrient mix, without supplementation (Invitrogen, Waltham, MA, cat. 11765054), 100 U/mL penicillin-streptomycin (Invitrogen, cat. 15140122), and 2.5% Matrigel (Corning Inc., Corning, NY, cat. 354248) for the first three passages. […]

CC(C)CC(NC(=O)C(Cc1ccccc1)NC(=O)c1cnccn1)B(O)O (configuration not stated)
8.4 nM and 6.94 nM: IC50
inactive: viability, T/C (compound 0.000316 µM) 101% and 95.8% | viability, T/C (compound 0.001 µM) 108% and 93.7% | viability, T/C (compound 0.00316 µM) 79.5% and 72.4% | viability, T/C (compound 0.01 µM) 44.7% and 39.4% | viability, T/C (compound 0.0316 µM) 19.9% and 15.4%
10% and 7.18%: viability, T/C (compound 0.1 µM)

CC(C)CC(NC(=O)CNC(=O)c1cc(Cl)ccc1Cl)B1OC(=O)CC(CC(=O)O)(C(=O)O)O1 (configuration not stated)
> 100 nM: IC50
inactive: viability, T/C (compound 0.000316 µM) 94.7% and 103% | viability, T/C (compound 0.001 µM) 95.6% and 99.8% | viability, T/C (compound 0.00316 µM) 92.1% and 95.9% | viability, T/C (compound 0.01 µM) 80.1% and 77.8% | viability, T/C (compound 0.0316 µM) 85% and 71.1% | viability, T/C (compound 0.1 µM) 70.6% and 57.8%

CC(C)c1c(-c2ccccc2)nc2c(C#N)c[nH]n2c1=O
inactive: viability, T/C (compound 0.0316 µM) 117% and 105% | viability, T/C (compound 0.1 µM) 108% and 94.7% | viability, T/C (compound 0.316 µM) 107% and 104% | viability, T/C (compound 1 µM) 107% and 102% | viability, T/C (compound 3.16 µM) 117% and 104% | viability, T/C (compound 10 µM) 104% and 100%
> 10000 nM: IC50

CC1(C)CCC(CN2CCN(c3ccc(C(=O)NS(=O)(=O)c4ccc(NCC5CCOCC5)c([N+](=O)[O-])c4)c(Oc4cnc5[nH]ccc5c4)c3)CC2)=C(c2ccc(Cl)cc2)C1
inactive: viability, T/C (compound 0.0316 µM) 98% and 105% | viability, T/C (compound 0.1 µM) 101% and 98.1% | viability, T/C (compound 0.316 µM) 95.8% and 105% | viability, T/C (compound 1 µM) 107% and 105% | viability, T/C (compound 3.16 µM) 107% and 103% | viability, T/C (compound 10 µM) 33.7% and 40.2%
7590 nM and 8360 nM: IC50

CC1COCCN1c1cc(-c2ccnn2C)c2ccnc(-c3ccn[nH]3)c2n1 (configuration not stated)
54.5 nM and 35.5 nM: IC50
inactive: viability, T/C (compound 0.00316 µM) 105% and 92.5% | viability, T/C (compound 0.01 µM) 86.5% and 81.7% | viability, T/C (compound 0.0316 µM) 58.9% and 50.4% | viability, T/C (compound 0.1 µM) 39.9% and 36.2% | viability, T/C (compound 0.316 µM) 34.4% and 32.6% | viability, T/C (compound 1 µM) 32.2% and 27%

CC1COCCN1c1cc(C2(S(C)(=N)=O)CC2)nc(-c2ccnc3[nH]ccc23)n1 (configuration not stated)
1640 nM and 957 nM: IC50
inactive: viability, T/C (compound 0.0316 µM) 106% and 102% | viability, T/C (compound 0.1 µM) 110% and 101% | viability, T/C (compound 0.316 µM) 90.1% and 76% | viability, T/C (compound 1 µM) 57.5% and 48.9% | viability, T/C (compound 3.16 µM) 41.4% and 34.1% | viability, T/C (compound 10 µM) 35.5% and 25.4%

CCN(c1cc(-c2ccc(CN3CCOCC3)cc2)cc(C(=O)NCc2c(C)cc(C)[nH]c2=O)c1C)C1CCOCC1
inactive: viability, T/C (compound 0.00949 µM) 101% and 110% | viability, T/C (compound 0.03 µM) 102% and 107% | viability, T/C (compound 0.0949 µM) 104% and 103% | viability, T/C (compound 0.3 µM) 102% and 97.2% | viability, T/C (compound 0.949 µM) 98.4% and 103% | viability, T/C (compound 3 µM) 100% and 109%
> 3000 nM: IC50

CC[C@@]1(O)C(=O)OCc2c1cc1n(c2=O)Cc2cc3c(CN(C)C)c(O)ccc3nc2-1
8.81 nM and 2.98 nM: IC50
inactive: viability, T/C (compound 0.000316 µM) 102% and 99% | viability, T/C (compound 0.001 µM) 93% and 93.4% | viability, T/C (compound 0.00316 µM) 57% and 47.1% | viability, T/C (compound 0.01 µM) 46.6% and 31.7% | viability, T/C (compound 0.0316 µM) 47.1% and 34.3% | viability, T/C (compound 0.1 µM) 24% and 18.9%

CCc1c2c(nc3ccc(O)cc13)-c1cc3c(c(=O)n1C2)COC(=O)[C@]3(O)CC
< 0.949 nM: IC50
inactive: viability, T/C (compound 0.000949 µM) 39.2% and 30.3% | viability, T/C (compound 0.003 µM) 21.2% and 19.1%
active: viability, T/C (compound 0.00949 µM) 8.48% and 7.2% | viability, T/C (compound 0.03 µM) 3.26% and 2.51% | viability, T/C (compound 0.0949 µM) 1.15% and 0.63% | viability, T/C (compound 0.3 µM) 0.68% and 0.54%

COc1cc(C2c3cc4c(cc3C(OC3OC5COC(C)OC5C(O)C3O)C3COC(=O)C23)OCO4)cc(OC)c1O (configuration not stated)
718 nM and 501 nM: IC50
inactive: viability, T/C (compound 0.00949 µM) 108% and 107% | viability, T/C (compound 0.03 µM) 110% and 94.7% | viability, T/C (compound 0.0949 µM) 101% and 84.4% | viability, T/C (compound 0.3 µM) 69.6% and 60.9% | viability, T/C (compound 0.949 µM) 44% and 35.2% | viability, T/C (compound 3 µM) 39% and 33.6%

COc1cc(Nc2ncc3c(n2)-c2ccc(Cl)cc2C(c2c(F)cccc2OC)=NC3)ccc1C(=O)O
inactive: viability, T/C (compound 0.00316 µM) 94.1% and 95.2% | viability, T/C (compound 0.01 µM) 88.5% and 86.9% | viability, T/C (compound 0.0316 µM) 74.8% and 74.2% | viability, T/C (compound 0.1 µM) 59.8% and 52.2% | viability, T/C (compound 0.316 µM) 57% and 49% | viability, T/C (compound 1 µM) 53.1% and 49.2%
> 1000 nM and 250 nM: IC50

Reference: PubChem BioAssay AID1918956 (Molecular Pharmacology Branch, DTP, NCI, 2023)
